Values quoted from earlier work in US20230085607A1, “IVERMECTIN COMPOSITIONS FOR TREATMENT OF COVID-19” (priority 2021, published 2023).
Read-outs that look alike come from different tables or passages of the source.

Tests used:
[1] = tested on: mice challenged with endotoxin (LPS O111:B4) or live Escherichia coli; settings: for concentration of IL-1 α: controls 1187.0±278.64
[2] = tested on: lipopolysaccharide-activated macrophages
[3] = tested on: rats subjected to myocardial ischemia and reperfusion; settings: 10 mg/kg intravenously then 10 mg/kg/h infusion
[4] = tested on: mice with experimental colitis
[5] = tested on: rats with polymicrobial sepsis (CL2P); settings: 10 mg/kg intraperitoneally at 1 and 6 h after CL2P and every 12 h
[6] = tested on: mice with polymicrobial sepsis (CL2P); settings: 10 mg/kg intraperitoneally, monitored 72 h after CL2P
[7] = tested on: mice with lethal endotoxemia or lethal sepsis
[8] = tested on: mice with LPS-induced ARDS
[9] = tested on: LPS-stimulated primary peritoneal macrophages
[10] = tested on: LPS-challenged macrophages; settings: 0 to 50 μM, 6 h pre-incubation, LPS 24 h
[11] = tested on: mice with LPS-induced ARDS; remark: listed apart in the source
[12] = 50 and 100 mg/kg/day, compared with MD group
[13] = 50 mg/kg, LPS 5 mg/kg 3 days later

CC1=CC(=O)C(C(C)C)=CC1=O [thymoquinone]
lipopolysaccharide-induced inflammatory reactions (nitric oxide): suppressed effectively
concentration of nitric oxide (nitric oxide; lipopolysaccharide-induced): reduced significantly
concentration of IL-1 α ([1]; 0.75 mg/kg dose): 310.8 ± 70.93 pg/mL
IL-10 levels ([1]; 0.75 mg/kg, controls 5505.2±333.96): 2885.0 ± 553.98 pg/mL
concentration of IL-1 α ([1]; 1 mg/kg group): 428.3 ± 71.32 pg/mL
levels of IL-2 ([1]; P=0.0851): relatively lower
levels of TNF-α ([1]; P=0.1817): relatively lower
mortality reduction ([1]; mice, sepsis): 80-90%
renal and hepatic biomarker profiles ([1]; mice, sepsis): improved

epigallocatechin-3-gallate [EGCG]
disappearance of inhibitor kappaB from cytosolic fraction [2]: blocked
NO production ([2]; cells cotreated with EGCG and LPS): Inhibition
activation of nuclear factor-kappaB ([2]; electrophoretic mobility shift assay): blocked
TNF-α-induced nuclear factor-κB (NF-κB) activity (macrophage foam cells): inhibition
TNF-α-induced downregulation of ABCA1 and decrease in cholesterol efflux to apoA1 (macrophage foam cells; pretreatment): attenuated
myeloperoxidase activity [3]: reduced
myocardial damage [3]: reduced
plasma IL-6 levels [3]: decreased
plasma creatine phosphokinase levels [3]: decreased
colonic tissue erosion [4, 12]: attenuation
disease activity index (DAI) [4, 12]: decreased
spleen index (SI) [4, 12]: decreased
HIF-1α and STATS protein expression in the colon ([4]; mouse, in vivo): decreasing
plasma levels of IL-10 and TGF-β1 ([4]; mouse, in vivo): increasing
release of IL-6 and IL-17 ([4]; plasma): reduce
hypotension (mean arterial blood pressure) [5]: significantly improved
survival [6]: significantly improved
rescue from lethal sepsis ([7]; first dose 24 hours after cecal ligation and puncture): rescued
protection against lethal endotoxemia ([7]; intraperitoneal administration): protected
systemic accumulation of HMGB1, IL-6 and KC ([7]; mouse, in vivo): attenuation
changes in blood gases ([8]; 10 mg/kg ip): decreased
expression of IκB-α ([8]; 10 mg/kg ip): increased
expression of TLR-4, MyD88, TRIF and p-p65 in the lung tissue ([8]; 10 mg/kg ip): alleviated
expression of TNF-α, IL-1β and IL-6 in the lung, serum and bronchoalveolar lavage fluid ([8]; 10 mg/kg ip): significantly decreased
expression of p65 ([8]; 10 mg/kg ip): no influence
histological lesions ([8]; 10 mg/kg ip): reduced
myeloperoxidase (MPO) activity ([8]; 10 mg/kg ip): reduced
wet-to-dry weight ratios ([8]; 10 mg/kg ip): reduced
LPS-induced ARDS ([8]; 10 mg/kg ip 1 h before LPS 10 mg/kg ip): attenuated

C[S+]([O-])CCCCN=C=S (centres unmarked) [sulforaphane, 1-isothiocyanato-4-(methylsulfinyl)-butane]
HO-1 expression ([9]; LPS-stimulated Nrf2 (+/+) primary peritoneal macrophages): significantly augmented
LPS-stimulated mRNA expression, protein expression and production of TNF-alpha, IL-1beta, COX-2 and iNOS ([9]; Nrf2 (+/+) primary peritoneal macrophages, pretreatment): potently inhibited
anti-inflammatory effect ([9]; Nrf2 (−/−) primary peritoneal macrophages): attenuated
direct reaction with cytokines or NO [10]: neither directly reacted
expression of NO and cytokines [10]: able to prevent
inducible nitric oxide synthase (iNOS) activity ([11]; 50 mg/kg): significantly inhibited
nuclear factor-κB protein expression ([11]; 50 mg/kg): significantly decreased
prostaglandin E2 (PGE2) production ([11]; 50 mg/kg): significantly inhibited
serum levels of interleukin-6 (IL-6) ([11]; 50 mg/kg, ELISA): significantly decreased
serum levels of tumor necrosis factor-α (TNF-α) ([11]; 50 mg/kg, ELISA): significantly decreased
lactate dehydrogenase (LDH) activity [11, 13]: significantly decreased
wet-to-dry ratio of the lungs [11, 13]: significantly decreased
cyclooxygenase-2 (COX-2) protein expression ([11]; 50 mg/kg, western blot): significantly inhibited
matrix metalloproteinase-9 (MMP-9) protein expression ([11]; 50 mg/kg, western blot): significantly inhibited
Nrf2/antioxidant response element (ARE) pathway ([11]; pre-treatment): activated
